According to patent publication US11168073B2, “3,3-difluoroallylamines or salts thereof and pharmaceutical compositions comprising the same” (YUHAN CORPORATION, priority 2018, dated 2021):
Structures can show the parent of a compound that is named as a salt.

Legend:
Format in all cases: biochemical
[1] = target: T1, recombinant human VAP-1 (Homo sapiens, UniProt Q16853); experiment: Activity evaluation on recombinant human VAP-1 (Amplex Red/HRP-coupled hydrogen peroxide assay, benzylamine substrate); settings: recombinant human VAP-1; 30 min preincubation at 37° C.; 1 mM benzylamine; read-out: Inhibitory Activity (IC50, nM) human VAP-1
T1 construct: purchased R&D systems
T1 sequence (Q16853 1-763): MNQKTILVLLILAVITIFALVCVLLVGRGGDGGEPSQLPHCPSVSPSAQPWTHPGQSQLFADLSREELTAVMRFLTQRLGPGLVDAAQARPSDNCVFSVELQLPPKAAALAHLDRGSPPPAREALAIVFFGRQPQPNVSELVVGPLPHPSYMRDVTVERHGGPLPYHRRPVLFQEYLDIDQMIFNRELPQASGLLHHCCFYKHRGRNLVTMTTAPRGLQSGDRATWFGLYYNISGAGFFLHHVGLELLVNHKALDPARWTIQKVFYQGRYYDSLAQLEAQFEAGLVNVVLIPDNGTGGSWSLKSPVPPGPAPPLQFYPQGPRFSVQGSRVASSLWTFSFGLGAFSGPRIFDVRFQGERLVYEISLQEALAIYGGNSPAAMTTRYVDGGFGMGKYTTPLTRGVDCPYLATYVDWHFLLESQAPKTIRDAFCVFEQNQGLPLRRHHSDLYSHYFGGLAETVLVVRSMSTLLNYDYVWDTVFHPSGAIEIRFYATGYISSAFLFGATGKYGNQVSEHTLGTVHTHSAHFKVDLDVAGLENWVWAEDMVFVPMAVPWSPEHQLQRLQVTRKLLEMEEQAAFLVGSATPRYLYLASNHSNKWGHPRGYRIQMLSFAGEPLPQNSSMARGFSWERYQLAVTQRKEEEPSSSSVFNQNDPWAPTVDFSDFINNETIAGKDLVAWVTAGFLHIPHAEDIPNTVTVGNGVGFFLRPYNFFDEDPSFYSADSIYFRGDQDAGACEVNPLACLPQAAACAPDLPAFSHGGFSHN
Summary of the method: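 Hydrogen peroxide from benzylamine (1 mM) oxidation by human recombinant VAP-1 detected via HRP-coupled Amplex Red (200 uM) fluorescence, kinetic over 1–2 h. Enzyme and compound preincubated 30 min at 37 °C, pH 7.4 phosphate; 8-point dose response, signal-rate decrease versus DMSO control fitted to four-parameter logistic for IC50.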

[2] = target: T2, recombinant human MAO-A (monoamine oxidase-A) (Homo sapiens, UniProt P21397); experiment: Activity evaluation on recombinant human MAO-A (Amplex Red/HRP-coupled assay, 0.5 mM tyramine substrate); settings: 0.5 mM tyramine, read-out: Inhibitory Activity (IC50, nM) MAO-A
T2 construct: purchased Sigma-Aldrich
T2 sequence (P21397 1-527): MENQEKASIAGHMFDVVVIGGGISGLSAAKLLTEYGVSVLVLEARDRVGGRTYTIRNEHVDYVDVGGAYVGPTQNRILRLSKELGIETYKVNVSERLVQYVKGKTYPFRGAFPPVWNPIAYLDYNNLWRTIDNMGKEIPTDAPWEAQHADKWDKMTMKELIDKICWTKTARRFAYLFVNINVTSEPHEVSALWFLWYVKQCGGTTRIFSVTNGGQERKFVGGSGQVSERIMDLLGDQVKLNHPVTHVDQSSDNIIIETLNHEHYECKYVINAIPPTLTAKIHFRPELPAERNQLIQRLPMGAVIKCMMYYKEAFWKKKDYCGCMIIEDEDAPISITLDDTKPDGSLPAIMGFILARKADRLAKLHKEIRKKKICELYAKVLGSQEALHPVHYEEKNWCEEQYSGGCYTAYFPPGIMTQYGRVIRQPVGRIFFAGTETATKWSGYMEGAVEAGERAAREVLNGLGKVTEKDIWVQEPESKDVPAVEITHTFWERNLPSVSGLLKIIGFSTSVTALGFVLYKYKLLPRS
Summary of the method: (§1)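 Each oxidase is tested with its own substrate: MAO-A with 0.5 mM tyramine, MAO-B with 1 mM benzylamine, DAO with 1 mM putrescine. After 30 min enzyme-compound preincubation at 37 °C, Amplex Red (200 uM) plus HRP (1 U/mL) reports H2O2 as fluorescence; IC50 is fitted from eight-point curves.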

[3] = target: T3, recombinant human MAO-B (monoamine oxidase-B) (Homo sapiens, UniProt P27338); experiment: Activity evaluation on recombinant human MAO-B (Amplex Red/HRP-coupled assay, 1 mM benzylamine substrate); settings: 1 mM benzylamine, read-out: Inhibitory Activity (IC50, nM) MAO-B
T3 construct: purchased Sigma-Aldrich
T3 sequence (P27338 1-520): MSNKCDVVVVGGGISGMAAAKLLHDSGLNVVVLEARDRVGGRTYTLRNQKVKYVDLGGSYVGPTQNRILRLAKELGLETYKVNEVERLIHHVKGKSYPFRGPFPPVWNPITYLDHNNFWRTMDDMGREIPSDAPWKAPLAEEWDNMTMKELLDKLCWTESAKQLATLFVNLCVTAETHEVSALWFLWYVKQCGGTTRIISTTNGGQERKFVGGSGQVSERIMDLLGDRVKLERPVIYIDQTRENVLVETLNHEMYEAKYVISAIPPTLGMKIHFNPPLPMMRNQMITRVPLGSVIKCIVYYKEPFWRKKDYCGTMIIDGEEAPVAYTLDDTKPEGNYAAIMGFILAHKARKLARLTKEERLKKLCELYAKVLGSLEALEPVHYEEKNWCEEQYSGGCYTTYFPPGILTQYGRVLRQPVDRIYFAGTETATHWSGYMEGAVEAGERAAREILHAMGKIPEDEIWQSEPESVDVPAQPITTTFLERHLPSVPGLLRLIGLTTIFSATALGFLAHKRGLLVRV
Summary of the method: as §1

[4] = target: T4, recombinant human DAO (diamine oxidase) (Homo sapiens, UniProt P19801); experiment: Activity evaluation on recombinant human DAO (Amplex Red/HRP-coupled assay, 1 mM putrescine substrate); settings: 1 mM putrescine, read-out: Inhibitory Activity (IC50, nM) DAO
T4 construct: purchased R&D systems
T4 sequence (P19801 20-751): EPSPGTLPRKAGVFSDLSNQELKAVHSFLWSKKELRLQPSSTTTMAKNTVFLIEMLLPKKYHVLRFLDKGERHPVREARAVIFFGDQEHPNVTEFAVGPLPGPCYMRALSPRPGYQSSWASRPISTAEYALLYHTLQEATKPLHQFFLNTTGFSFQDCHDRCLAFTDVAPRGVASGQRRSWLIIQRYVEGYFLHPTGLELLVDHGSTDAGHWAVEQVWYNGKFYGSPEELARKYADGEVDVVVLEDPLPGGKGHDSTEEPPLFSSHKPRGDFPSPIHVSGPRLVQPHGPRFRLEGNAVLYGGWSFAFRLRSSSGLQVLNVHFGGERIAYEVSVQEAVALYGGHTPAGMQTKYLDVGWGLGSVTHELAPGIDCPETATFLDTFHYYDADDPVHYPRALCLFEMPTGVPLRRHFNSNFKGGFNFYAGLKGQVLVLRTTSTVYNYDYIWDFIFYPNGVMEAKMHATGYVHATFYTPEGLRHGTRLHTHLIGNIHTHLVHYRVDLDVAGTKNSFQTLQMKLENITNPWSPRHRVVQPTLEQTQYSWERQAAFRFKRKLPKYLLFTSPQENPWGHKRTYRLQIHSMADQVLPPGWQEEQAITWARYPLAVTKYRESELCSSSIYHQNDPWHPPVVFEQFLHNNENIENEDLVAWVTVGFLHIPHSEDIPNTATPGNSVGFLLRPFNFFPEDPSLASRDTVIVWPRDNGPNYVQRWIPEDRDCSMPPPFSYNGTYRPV
Summary of the method: as §1

IC50 [1] [nM]	IC50 [2] [nM]	IC50 [3] [nM]	IC50 [4] [nM]	SMILES
0.5	> 100000	1500	57000	Cc1cc(-c2ccc3c(c2)OCO3)cnc1-n1cnn(CC(CN)=C(F)F)c1=O [Example 72, 2-[2-(aminomethyl)-3,3-difluoro-allyl]-4-[5-(1,3-benzodioxol-5-yl)-3-methyl-2-pyridyl]-1,2,4-triazol-3-one Trifluoroacetate]
0.3	> 100000	7200	6100	Cc1cc(-c2cc(C)c3c(c2)CCC(=O)N3)cnc1-n1cnn(CC(CN)=C(F)F)c1=O [Example 73, 6-[6-[1-[2-(aminomethyl)-3,3-difluoro-allyl]-5-oxo-1,2,4-triazol-4-yl]-5-methyl-3-pyridyl]-8-methyl-3,4-dihydro-1H-quinolin-2-one Trifluoroacetate]
0.3	> 100000	7500	6500	Cc1cc(-c2ccc3c(c2)CCC(=O)N3C)cnc1-n1cnn(CC(CN)=C(F)F)c1=O [Example 74, 6-[6-[1-[2-(aminomethyl)-3,3-difluoro-allyl]-5-oxo-1,2,4-triazol-4-yl]-5-methyl-3-pyridyl]-1-methyl-3,4-dihydroquinolin-2-one Trifluoroacetate]
0.7	> 100000	> 100000	20000	CCn1cc(-c2cnc(-n3cnn(CC(CN)=C(F)F)c3=O)c(C)c2)cn1 [Example 75, 2-[2-(aminomethyl)-3,3-difluoro-allyl]-4-[5-(1-ethylpyrazol-4-yl)-3-methyl-2-pyridyl]-1,2,4-triazol-3-one Trifluoroacetate]
1.1	> 100000	44000	32	Cc1cc(-n2cnn(CC(CN)=C(F)F)c2=O)cnc1-c1ccc(S(C)(=O)=O)cc1 [Example 76, 2-[2-(aminomethyl)-3,3-difluoro-allyl]-4-[5-methyl-6-(4-methylsulfonylphenyl)-3-pyridyl]-1,2,4-triazol-3-one Trifluoroacetate]
1	> 100000	1600	10	Cc1cc(-n2cnn(CC(CN)=C(F)F)c2=O)cnc1-c1ccc(C(F)(F)F)nc1 [Example 77, 2-[2-(aminomethyl)-3,3-difluoro-allyl]-4-[5-methyl-6-[6-(trifluoromethyl)-3-pyridyl]-3-pyridyl]-1,2,4-triazol-3-one Trifluoroacetate]
0.6	> 100000	9800	57	Cc1cc(-n2cnn(CC(CN)=C(F)F)c2=O)cnc1-c1ccc(N(C)C)nc1 [Example 78, 2-[2-(aminomethyl)-3,3-difluoro-allyl]-4-[6-[6-(dimethylamino)-3-pyridyl]-5-methyl-3-pyridyl]-1,2,4-triazol-3-one Trifluoroacetate]
0.9	> 100000	910	200	Cc1cc(-n2cnn(CC(CN)=C(F)F)c2=O)cnc1-c1ccc2c(c1)OCO2 [Example 79, 2-[2-(aminomethyl)-3,3-difluoro-allyl]-4-[6-(1,3-benzodioxol-5-yl)-5-methyl-3-pyridyl]-1,2,4-triazol-3-one Trifluoroacetate]
0.4	> 100000	5300	36	Cc1cc(-n2cnn(CC(CN)=C(F)F)c2=O)cnc1-c1cc(C)c2c(c1)CCC(=O)N2 [Example 80, 6-[5-[1-[2-(aminomethyl)-3,3-difluoro-allyl]-5-oxo-1,2,4-triazol-4-yl]-3-methyl-2-pyridyl]-8-methyl-3,4-dihydro-1H-quinolin-2-one Trifluoroacetate]
0.4	> 100000	3500	27	Cc1cc(-n2cnn(CC(CN)=C(F)F)c2=O)cnc1-c1ccc2c(c1)CCC(=O)N2C [Example 81, 6-[5-[1-[2-(aminomethyl)-3,3-difluoro-allyl]-5-oxo-1,2,4-triazol-4-yl]-3-methyl-2-pyridyl]-1-methyl-3,4-dihydroquinolin-2-one Trifluoroacetate]
0.1	> 100000	3700	13	CS(=O)(=O)c1ccc(-c2cnc(-n3cnn(CC(CN)=C(F)F)c3=O)c(F)c2)cc1 [Example 82, 2-[2-(aminomethyl)-3,3-difluoro-allyl]-4-[3-fluoro-5-(4-methylsulfonylphenyl)-2-pyridyl]-1,2,4-triazol-3-one Trifluoroacetate]
0.4	> 100000	> 10000	250	NCC(Cn1ncn(-c2ncc(-c3ccc(N4CCNCC4)cc3)cc2F)c1=O)=C(F)F [Example 83, 2-[2-(aminomethyl)-3,3-difluoro-allyl]-4-[3-fluoro-5-(4-piperazin-1-ylphenyl)-2-pyridyl]-1,2,4-triazol-3-one Ditrifluoroacetate]
0.2	> 100000	900	7	NCC(Cn1ncn(-c2ncc(-c3ccc(C(F)(F)F)nc3)cc2F)c1=O)=C(F)F [Example 84, 2-[2-(aminomethyl)-3,3-difluoro-allyl]-4-[3-fluoro-5-[6-(trifluoromethyl)-3-pyridyl]-2-pyridyl]-1,2,4-triazol-3-one Trifluoroacetate]
